{"source": "patent US11311015B2", "about": "“Herbicidal combination” (UPL LIMITED, priority 2018, dated 2022)", "test_system": "yellow nutsedge", "assay": "Field trial, post-emergence control of yellow nutsedge (Blacksburg, Va.)", "assay_type": "in vivo, Cyperus esculentus", "settings": "for Yellow nut sedge (Percentage weed cover), 05/07 / Yellow nut sedge (Percentage weed cover), 13/06 / Yellow nut sedge (Percentage weed cover), 20/6 / Yellow nut sedge (Percentage Control), 05/07 / Yellow nut sedge (Percentage Control), 13/06 / Yellow nut sedge (Percentage Control), 20/6: post-emergence field plots, dosage 1X single, 0.5X two-way; for Yellow nut sedge (Percentage weed cover), 05/07: rating date 05/07 (29 DAT), untreated 59; for Yellow nut sedge (Percentage weed cover), 05/07 / Yellow nut sedge (Percentage weed cover), 13/06 / Yellow nut sedge (Percentage weed cover), 20/6 / Yellow nut sedge (Percentage Control), 05/07 / Yellow nut sedge (Percentage Control), 20/6: 0.33X three-way; for Yellow nut sedge (Percentage weed cover), 13/06: rating date 13/06, untreated 50; for Yellow nut sedge (Percentage weed cover), 20/6: rating date 20/6, untreated 49; for Yellow nut sedge (Percentage Control), 05/07: trial initiated June 6, rating date 05/07 (29 DAT); for Yellow nut sedge (Percentage Control), 13/06: trial initiated June 6, rating date 13/06, 0.33X three-way (rates Table 2); for Yellow nut sedge (Percentage Control), 20/6: trial initiated June 6, rating date 20/6; for Burn down / residual control of sedges, result in words: speed of burn down, onset of plant necrosis", "procedure": "An exemplary combination according to the invention was used for sedge and broadleaf weed control for agricultural crops, turf, ornamentals, and landscape. The exemplary combination was used for the post-emergence control of sedges, as well as the control/suppression of various broadleaf and grassy weeds.\nA field trial was conducted to evaluate the effectiveness of the combinations of three active ingredients according to the invention when used post emergence, at different rates, compared to industry standards—stand alone and 2 way mixture of compounds for efficacy of yellow nutsedge. The active ingredient combination used in the trial was bentazon+halosulfuron+sulfentrazone. The trial was conducted in Blacksburg, Va. and was initiated on June 6 under Protocol #BRLM-62-US-VA-18-10-BTC. The plots were in fallow area primarily covered with yellow nutsedge and tall fescue, and were sprayed at 4 week intervals. (2 applications total). The application dosages of the herbicides, when used in isolation and when used in the combinations were as follows: […]", "data": [{"smiles": "CC(C)N1C(=O)c2ccccc2NS1(=O)=O", "note": "[Bentazone]", "values": [{"measurement": "Yellow nut sedge (Percentage weed cover), 05/07", "result": 10, "unit": "%"}, {"measurement": "Yellow nut sedge (Percentage weed cover), 13/06", "result": 40, "unit": "%"}, {"measurement": "Yellow nut sedge (Percentage weed cover), 20/6", "result": 8, "unit": "%"}, {"measurement": "Yellow nut sedge (Percentage Control), 05/07", "result": 76, "unit": "%"}, {"measurement": "Yellow nut sedge (Percentage Control), 13/06", "result": 65, "unit": "%"}, {"measurement": "Yellow nut sedge (Percentage Control), 20/6", "result": 75, "unit": "%"}, {"measurement": "Weed control of yellow nutsedge, result in words", "setting": "post-emergence field trial, compared to individual products and 2 way mixes", "result": "did not provide sufficient weed control"}, {"measurement": "Burn down / residual control of sedges, result in words", "result": "fairly rapid burn down of some of the sedges"}]}, {"smiles": "COC(=O)c1c(Cl)nn(C)c1S(=O)(=O)NC(=O)Nc1nc(OC)cc(OC)n1", "note": "[Halosulfuron, Halosulfuron-methyl]", "values": [{"measurement": "Yellow nut sedge (Percentage weed cover), 05/07", "result": 8, "unit": "%"}, {"measurement": "Yellow nut sedge (Percentage weed cover), 13/06", "result": 50, "unit": "%"}, {"measurement": "Yellow nut sedge (Percentage weed cover), 20/6", "result": 16, "unit": "%"}, {"measurement": "Yellow nut sedge (Percentage Control), 05/07", "result": 81, "unit": "%"}, {"measurement": "Yellow nut sedge (Percentage Control), 13/06", "result": 36, "unit": "%"}, {"measurement": "Yellow nut sedge (Percentage Control), 20/6", "result": 60, "unit": "%"}, {"measurement": "Burn down / residual control of sedges, result in words", "result": "delayed response of up to four weeks before plant necrosis began"}]}, {"smiles": "Cc1nn(-c2cc(NS(C)(=O)=O)c(Cl)cc2Cl)c(=O)n1C(F)F", "note": "[Sulfentrazone]", "values": [{"measurement": "Yellow nut sedge (Percentage weed cover), 05/07", "result": 9, "unit": "%"}, {"measurement": "Yellow nut sedge (Percentage weed cover), 13/06", "result": 44, "unit": "%"}, {"measurement": "Yellow nut sedge (Percentage weed cover), 20/6", "result": 11, "unit": "%"}, {"measurement": "Yellow nut sedge (Percentage Control), 05/07", "result": 75, "unit": "%"}, {"measurement": "Yellow nut sedge (Percentage Control), 13/06", "result": 58, "unit": "%"}, {"measurement": "Yellow nut sedge (Percentage Control), 20/6", "result": 73, "unit": "%"}, {"measurement": "Burn down / residual control of sedges, result in words", "result": "fairly rapid burn down of some of the sedges"}]}]}
